Reference: US7470707B2, “Crystalline monohydrate clopidogrel naphthalenedisulfonate and process of preparation” (Hanmi Pharm. Co., Ltd, priority 2004, dated 2008)
Where a name gives a salt, the structure may show the parent alone. Read-outs that look alike come from different tables or passages of the source.

Conditions: 60±2° C., 75±5% RH; for Relative amount compared to the initial amount: HPLC condition A; for Amount of hydrolyzed impurities (formula (III)) of an acid addition salt of clopidogrel: HPLC condition B; for Amount of levorotatory isomers (formula (IV)) of an acid addition salt of clopidogrel: HPLC condition C
Description: Condition A: For the measurement of an assay of an acid addition salt of clopidogrel
• Column: Kromasil C18, 5 μm (250 mm×4.6 mm) • Detector: 220 nm • Flow rate: 1.5 ml/minute • Mobile phase: Na2HPO4—NaH2PO4 buffer solution: THF: CH3CN=5:2:3 (v/v) Condition B: For the measurement of an amount of hydrolyzed impurities of an acid addition salt of clopidogrel • Column: Capcellpak C18 MG, 5 μm (250 mm×4.6 mm) • Detector: 210 nm • Flow rate: 1.0 ml/min. • Mobile phase: KH2PO4 buffer solution/CH3CN (70/30): KH2PO4 buffer solution/CH3CN (30/70)=0:100 100:0 (v/v, gradient elution) Condition C: For the measurement of an optical purity of an acid addition salt of clopidogrel • Column: Chiralpak AD, 5 μm (250 mm×4.6 mm) • Detector: 210 nm • Flow rate: 1.0 ml/min. • Mobile phase: n-hexane: isopropanol=90:10 (v/v)
The assay of the acid addition salt of clopidogrel was measured using HPLC condition A, the amount of hydrolyzed impurities of the acid addition salt of clopidogrel was measured using HPLC condition B, the optical purity of the acid addition salt of clopidogrel (i.e., the amount of the levorotatory isomers) was measured using the HPLC condition C, and the water content of the acid addition salt of clopidogrel was measured with a Karl-Fisher titrator.

Row | SMILES | Relative amount compared to the initial amount (0 day) | Amount of hydrolyzed impurities (formula (III)) of an acid addition salt of clopidogrel (0 day) | Amount of levorotatory isomers (formula (IV)) of an acid addition salt of clopidogrel (0 day) | Relative amount compared to the initial amount (7 days) | Amount of levorotatory isomers (formula (IV)) of an acid addition salt of clopidogrel (7 days) | Relative amount compared to the initial amount (14 days) | Amount of hydrolyzed impurities (formula (III)) of an acid addition salt of clopidogrel (14 days) | Amount of levorotatory isomers (formula (IV)) of an acid addition salt of clopidogrel (14 days) | Relative amount compared to the initial amount (21 days) | Amount of levorotatory isomers (formula (IV)) of an acid addition salt of clopidogrel (21 days) | Relative amount compared to the initial amount (28 days) | Amount of hydrolyzed impurities (formula (III)) of an acid addition salt of clopidogrel (28 days) | Amount of levorotatory isomers (formula (IV)) of an acid addition salt of clopidogrel (28 days) | Relative amount compared to the initial amount (35 days) | Amount of hydrolyzed impurities (formula (III)) of an acid addition salt of clopidogrel (35 days) | Amount of levorotatory isomers (formula (IV)) of an acid addition salt of clopidogrel (35 days) | further results
1 | COC(=O)[C@H](c1ccccc1Cl)N1CCc2sccc2C1 [1,5-Naphthalenedisulfonate monohydrate, Clopidogrel 1,5-naphthalenedisulfonate Monohydrate] | 100% | 0.0% |  |  |  |  |  |  |  |  |  |  |  |  |  |  | Amount of levorotatory isomers (formula (IV)) of an acid addition salt of clopidogrel (0 day, Monohydrate): 0.10%; Relative amount compared to the initial amount (7 days, Monohydrate): 100%; Amount of levorotatory isomers (formula (IV)) of an acid addition salt of clopidogrel (7 days, Monohydrate): 0.10%; Relative amount compared to the initial amount (14 days, Monohydrate): 100%; Amount of hydrolyzed impurities (formula (III)) of an acid addition salt of clopidogrel (14 days, Monohydrate): 0.02%; Amount of levorotatory isomers (formula (IV)) of an acid addition salt of clopidogrel (14 days, Monohydrate): 0.10%; Relative amount compared to the initial amount (21 days, Monohydrate): 100%; Amount of levorotatory isomers (formula (IV)) of an acid addition salt of clopidogrel (21 days, Monohydrate): 0.09%; Relative amount compared to the initial amount (28 days, Monohydrate): 99.9%; Amount of hydrolyzed impurities (formula (III)) of an acid addition salt of clopidogrel (28 days, Monohydrate): 0.04%; Amount of levorotatory isomers (formula (IV)) of an acid addition salt of clopidogrel (28 days, Monohydrate): 0.11%; Relative amount compared to the initial amount (35 days, Monohydrate): 99.9%; Amount of hydrolyzed impurities (formula (III)) of an acid addition salt of clopidogrel (35 days, Monohydrate): 0.05%; Amount of levorotatory isomers (formula (IV)) of an acid addition salt of clopidogrel (35 days, Monohydrate): 0.10%
2 | COC(=O)[C@H](c1ccccc1Cl)N1CCc2sccc2C1 [2-Naphthalenesulfonate, Clopidogrel 2-naphthalenesulfonate] | 100% | 0.0% | 0.10% | 99.1% | 0.10% | 99.3% | 0.12% | 0.10% | 99.1% | 0.10% | 99.0% | 0.16% | 0.11% | 99.2% | 0.18% | 0.13% | 
3 | COC(=O)[C@H](c1ccccc1Cl)N1CCc2sccc2C1 [Hydrogen sulfate, Clopidogrel Hydrogen Sulfate, reference compound] | 100% | 0.0% | 0.35% | 99.6% | 0.35% | 98.7% | 0.63% | 0.40% | 97.7% | 0.49% | 94.4% | 2.0% | 0.67% | 87.0% | 4.8% | 1.08% | 
